The source of these data is PubChem BioAssay (NCI).

Several values for one entry are separate records, joined by “and”; a condition that tells them apart may be missing. Equal values may be shown once.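 Dose response: 5 concentrations. Exposure: 48 h. Format: 96-well plates. Endpoint: linear interpolation; highest concentration if not reached. The concentration for 50% growth inhibition is given as GI50. Definition used: TGI = concentration required for complete inhibition of growth.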

Test systems include A549 NSCLC; ACHN renal; HCT-15 colon; HS 578T breast; IGROV1 ovarian; MDA-MB-435; OVCAR-5 ovarian; RXF 393 renal; SF-539 CNS; UACC-257 melanoma.
Holding throughout (assay): DTP human tumour cell line panel, 48 h

As usually defined, the GI50 is the concentration giving 50% growth inhibition. The term TGI denotes the concentration at which net growth stops. Low readings indicate more potent growth arrest, high ones less potent growth arrest. Regarding `C=CCCCCCCCCC(=O)[O][Sn]([CH2]CCC)([CH2]CCC)[CH2]CCC`, the GI50 was 0.164 µM in the assay with A549 NSCLC; 0.164 µM with ACHN renal; 0.158 µM with HCT-15 colon; 0.166 µM with HS 578T breast; 0.148 µM in the assay on IGROV1 ovarian; 0.153 µM with MDA-MB-435. Further, the GI50 is 0.128 µM with OVCAR-5 ovarian, 0.0991 µM in the assay with RXF 393 renal, 0.169 µM in the assay on SF-539 CNS and 0.144 µM in the assay with UACC-257 melanoma. In addition, the TGI was 0.322 µM with A549 NSCLC; 0.31 µM in the assay with ACHN renal; 0.348 µM with HCT-15 colon; 0.493 µM in the assay on HS 578T breast; 0.335 µM with IGROV1 ovarian; 0.319 µM with MDA-MB-435. The TGI in the assay on OVCAR-5 ovarian was 0.297 µM; with RXF 393 renal, 0.255 µM; in the assay with SF-539 CNS, 0.332 µM; in the assay on UACC-257 melanoma, 0.291 µM.
On to `Oc1ccc2ccccc2c1N=Nc1nccs1`, for which the GI50 with A549 NSCLC was 6.18 µM; with ACHN renal it was 0.27 µM; in the assay with HCT-15 colon, 0.32 µM; in the assay with HS 578T breast it was 4.55 µM; in the assay on IGROV1 ovarian, 0.172 µM; with MDA-MB-435 it was 3.03 µM. For the same molecule, the GI50 is 5.61 µM in the assay with OVCAR-5 ovarian, 3.33 µM in the assay on RXF 393 renal, 2.33 µM with SF-539 CNS and 3.1 µM in the assay on UACC-257 melanoma. Also, the TGI in the assay with A549 NSCLC is > 53.4 µM; in the assay with ACHN renal, 14 µM; with HCT-15 colon it was 19.6 µM; with HS 578T breast, 45.2 µM; in the assay with IGROV1 ovarian, 6.95 µM; in the assay on MDA-MB-435, 27.9 µM. Moreover, the concentration for total growth inhibition (TGI) was 25.6 µM with OVCAR-5 ovarian, > 59.2 µM with RXF 393 renal, 13.2 µM in the assay on SF-539 CNS and 16.4 µM in the assay with UACC-257 melanoma.
As to `COC1/C=C\C=C(/C)C(=O)NC2=CC(=O)C(=O)C(=C2O)CC(C)CC(OC)C(O)C(C)/C=C(\C)C1OC(N)=O` (stereo not given), the total growth inhibition concentration (TGI) with A549 NSCLC is > 100 µM; with ACHN renal, > 82.1 µM; with HCT-15 colon, > 100 µM; in the assay with HS 578T breast it was > 100 µM; in the assay on IGROV1 ovarian it was > 100 µM; in the assay with MDA-MB-435, 11.8 µM. Moreover, the TGI is > 100 µM in the assay with OVCAR-5 ovarian, 27.5 µM in the assay with RXF 393 renal, 22.5 µM in the assay with SF-539 CNS and > 36.3 µM with UACC-257 melanoma.
Turning to `FC(F)(F)c1cccc(Nc2nccc(-c3cnn4nc(-c5ccccc5)ccc34)n2)c1`, the GI50 with A549 NSCLC was 5.36 µM; with ACHN renal it was 6.71 µM; with HCT-15 colon it was 8.5 µM; in the assay with HS 578T breast, 7.38 µM; with IGROV1 ovarian, 11.4 µM; in the assay on MDA-MB-435 it was 10.4 µM. Moreover, the GI50 is > 22.9 µM in the assay on OVCAR-5 ovarian, 4.63 µM in the assay with RXF 393 renal, 6.59 µM with SF-539 CNS and 15.8 µM with UACC-257 melanoma. Moreover, the TGI in the assay on A549 NSCLC was > 14.3 µM; in the assay on ACHN renal, > 18 µM; with HCT-15 colon, 24.4 µM; in the assay with HS 578T breast it was > 20.3 µM; in the assay with IGROV1 ovarian, > 25 µM; in the assay on MDA-MB-435 it was > 25 µM. The TGI in the assay with OVCAR-5 ovarian is > 25 µM; in the assay on RXF 393 renal it was 10 µM; in the assay on SF-539 CNS it was > 18.7 µM; in the assay with UACC-257 melanoma it was > 25 µM.
With `COc1ccc(-c2cnnc3c(-c4cccc(C(F)(F)F)c4)cnn23)cc1`, the GI50 in the assay with A549 NSCLC was 4.19 µM; in the assay on ACHN renal, 3.52 µM; in the assay on HCT-15 colon, > 100 µM; in the assay with HS 578T breast it was 4.11 µM; with IGROV1 ovarian it was 1.97 µM; with MDA-MB-435, 5.04 µM. Besides, the GI50 in the assay on OVCAR-5 ovarian is > 100 µM; in the assay with RXF 393 renal, 0.0291 µM; in the assay on SF-539 CNS it was 3 µM; in the assay on UACC-257 melanoma it was 6.44 µM. Also, the TGI in the assay on A549 NSCLC, in the assay on ACHN renal, in the assay on HCT-15 colon, with HS 578T breast, in the assay with IGROV1 ovarian and in the assay on MDA-MB-435 was > 100 µM throughout. For the same molecule, the TGI was > 100 µM in the assay with OVCAR-5 ovarian, 3.07 µM in the assay with RXF 393 renal, > 100 µM in the assay on SF-539 CNS and > 100 µM in the assay on UACC-257 melanoma.
As to `COc1cc2c(c(O)c1Br)C(=O)c1c(O)cc(C[C@H](C)O)cc1[C@H]2[C@H]1c2cc(C[C@H](C)O)cc(O)c2C(=O)c2c1cc(OC)c(Br)c2O`, the GI50 in the assay on A549 NSCLC was 10.1 µM and 20.9 µM; in the assay on ACHN renal, 2.38 µM and 10.5 µM; with HCT-15 colon it was 10.4 µM and 17.4 µM; in the assay on HS 578T breast it was 2.99 µM and 4.1 µM; in the assay with IGROV1 ovarian it was 2.98 µM and 5.45 µM; with MDA-MB-435, 5.76 µM and 13.4 µM. In addition, the GI50 was 11.1 µM and 17.1 µM in the assay on OVCAR-5 ovarian; 2.59 µM and 2.72 µM in the assay on RXF 393 renal; 2.66 µM and 3.67 µM with SF-539 CNS; 11.2 µM and 19.1 µM with UACC-257 melanoma. In addition, the TGI with A549 NSCLC is 32.9 µM and > 100 µM; with ACHN renal it was 9.27 µM and 23.1 µM; with HCT-15 colon, 67.5 µM and > 100 µM; in the assay on HS 578T breast, 67.5 µM and 65.9 µM; with IGROV1 ovarian, 46.7 µM and 28.2 µM; in the assay on MDA-MB-435, 36.1 µM and 37.6 µM. Further, the TGI in the assay on OVCAR-5 ovarian is 27.4 µM and 46.5 µM; with RXF 393 renal, 22 µM and 9.33 µM; in the assay on SF-539 CNS, 14.8 µM and 13.6 µM; in the assay with UACC-257 melanoma it was 39.8 µM and 67.7 µM.
On to `CCOc1cc2c(Cl)ncnc2c(OCC)c1OCC`, for which the GI50 in the assay on A549 NSCLC is 24.6 µM; in the assay with ACHN renal, 14.1 µM; in the assay on HCT-15 colon it was 2.56 µM; with HS 578T breast it was 2.07 µM; in the assay with IGROV1 ovarian it was 1.6 µM; with MDA-MB-435, 6.06 µM. Further, the GI50 with OVCAR-5 ovarian is 17.9 µM; in the assay on RXF 393 renal it was 7.74 µM; in the assay on SF-539 CNS, 14 µM; in the assay on UACC-257 melanoma, 6.95 µM. Further, the TGI is > 79.8 µM with A549 NSCLC; 27.1 µM in the assay with ACHN renal; 9.07 µM in the assay on HCT-15 colon; 5.45 µM in the assay on HS 578T breast; 3.53 µM with IGROV1 ovarian; 21.2 µM in the assay with MDA-MB-435. Moreover, the TGI with OVCAR-5 ovarian stood at 33.4 µM; in the assay with RXF 393 renal, 22.1 µM; with SF-539 CNS it was 27.8 µM; in the assay on UACC-257 melanoma it was 22 µM.
In the case of `CC[C@@]1(O)C(=O)OCc2c1cc1n(c2=O)Cc2c-1nc1cc3c(cc1c2CCl)OCO3`, the GI50 with A549 NSCLC was < 0.01 µM; with ACHN renal, < 0.01 µM; in the assay on HCT-15 colon it was 0.192 µM; in the assay with HS 578T breast, 1.29 µM; in the assay on IGROV1 ovarian it was 0.139 µM; with MDA-MB-435 it was 0.0592 µM. The GI50 was 0.0593 µM in the assay with OVCAR-5 ovarian, < 0.0138 µM in the assay with RXF 393 renal, < 0.01 µM in the assay with SF-539 CNS and < 0.0446 µM with UACC-257 melanoma. Moreover, the total growth inhibition concentration (TGI) in the assay on A549 NSCLC is 3.25 µM; in the assay on ACHN renal, 0.0322 µM; with HCT-15 colon, 12.3 µM; in the assay with HS 578T breast it was > 54.1 µM; in the assay with IGROV1 ovarian it was 5.75 µM; with MDA-MB-435 it was 2.24 µM. Besides, the TGI in the assay with OVCAR-5 ovarian is 2.12 µM; in the assay with RXF 393 renal, 1.21 µM; in the assay with SF-539 CNS it was < 0.0135 µM; with UACC-257 melanoma, 1.59 µM.
